The test system of series [1] is B-chronic lymphocytic leukemia (CLL) primary cells. Conditions: WO 2013/182650, cited from earlier work; for induction of PCD: soluble peptide.
For series [2], the target named is T1, CD47 (membrane preparation from MEC-1 cells) (Homo sapiens, UniProt Q08722).
T1 construct: MEC-1 cell membrane preparation were biotinylated with the EZ-Link NHS-PEG4-Biotin kit; endogenous in cells; host or cells: MEC-1 cells (membrane preparation)
The series is described as follows: Binding affinity by biolayer interferometry (Octet RED96) on biotinylated MEC-1 cell membrane preparation. Conditions: NPD = Non Pertinent Data. As for the experimental part:
The binding affinities of peptides for a membrane preparation from MEC-1 cells were measured by biolayer interferometry on an Octet RED96 System (Pall FortéBio Corp., Menlo Park, Calif.).
The binding affinities of peptides for a membrane preparation from MEC-1 cells were measured by biolayer interferometry on an Octet RED96 System (Pall FortéBio Corp., Menlo Park, Calif.). This system monitors interference of light reflected from two sources (an internal reflection surface and the liquid/solid interface of a fiber optic sensor) to measure the rate of binding of molecules to the biosensor surface.
MEC-1 cell membrane preparation were biotinylated with the EZ-Link NHS-PEG4-Biotin kit from Thermo-Scientific. Biotinylated membranes were then loaded onto SuperStreptavidin (SSA) biosensors (Pall FortéBio Corp.) at empirically determined concentrations.
In order to highlight the pharmacological properties of these peptides, a systematic SAR study by the development of a binding assay allowing to the assessment of the affinity of the 4N1K analogues to CD47 was initiated. […] An Ala-scan to identify the pharmacophores of 4N1K was implemented.
The binding affinities of peptides for a MEC-1 cells membrane preparation were measured by biolayer interferometry on an Octet RED96 System (Pall FortéBio Corp., Menlo Park, Calif.). This system monitors interference of light reflected from two sources (an internal reflection surface and the liquid/solid interface of a fiber optic sensor) to measure the rate of binding of molecules to the biosensor surface. MEC-1 cells membrane preparation is biotinylated with the EZ-Link NHS-PEG4-Biotin kit from Thermo-Scientific and excess biotin is removed using desalting column from Thermo-Scientific. Biotinylated membranes are then loaded onto SuperStreptavidin (SSA) biosensors (Pall FortéBio Corp.) at empirically determined concentrations. […] Typically, the biosensors were pre-equilibrated in PBS containing either biotinylated membranes or biocytine 100 μg/mL. Biosensors are then equilibrated in assay buffer for 10 min, brought to baseline in assay buffer for 60 sec. and transferred to wells containing peptide in dose-response (association for 120 sec. and dissociation for 300 sec.). The double reference with either membrane-loaded biosensors without any peptide dose-response or biocytine-loaded biosensors with each peptide dose-response were run in parallel for background signal double subtractions. Binding kinetics were calculated using the FortéBio Data Analysis v8.2 software.

The test system of another series is MEC-1 cells. Briefly: MEC-1 cell death (PCD) after 2 h peptide treatment. The series is classed as cell-based. The following applies: for MEC-1 Cell Death (%) 2 h: Table 2, NPD = Non Pertinent Data; for MEC-1 Cell Death (%) 2 h, [peptides] = 200 μM: Table 3, 200 μM peptide; for Cell Death (MEC-1, 2 h): Table 4. As for the experimental part:
Then the peptides structures were tested via NMR and X-ray. The peptides were also tested for their activity on MEC-1 and their KDs and Retention times on LCMS were determined.

Series [3] deals with T2, CD47 (NT.115-labeled membrane) (Homo sapiens, UniProt Q08722).
T2 construct: the concentration of the NT.115-labeled membrane was kept constant; endogenous in cells
T2 sequence (Q08722 19-323): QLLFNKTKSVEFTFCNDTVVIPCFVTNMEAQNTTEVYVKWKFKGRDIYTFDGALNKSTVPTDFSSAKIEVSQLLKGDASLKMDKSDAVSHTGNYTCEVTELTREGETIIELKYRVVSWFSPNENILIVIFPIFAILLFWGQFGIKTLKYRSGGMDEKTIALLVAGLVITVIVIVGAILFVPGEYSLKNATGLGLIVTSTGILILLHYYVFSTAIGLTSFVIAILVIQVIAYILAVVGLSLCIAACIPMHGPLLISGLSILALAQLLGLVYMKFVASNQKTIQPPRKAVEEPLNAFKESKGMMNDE
The series is described as follows: Binding affinity by microscale thermophoresis (MST), NT.115-labeled membrane. The following applies: Table 2; average of at least three independent experiments; NPD = Non Pertinent Data. As for the experimental part: For all experiments the concentration of the NT.115-labeled membrane was kept constant, while the concentrations of the ligand (peptide) was varied. After a short incubation time (5 min) the samples were loaded into MST premium glass capillaries and the MST analysis was performed using the Monolith NT.115.

Series [4] is described as follows: Solubility of the peptides in water / aqueous buffer (NMR, CD samples). Type of series: physicochemical. The following applies: for solubility of peptide (in words): aqueous buffer, NMR / CD samples. The protocol:
CD spectra were recorded on a Jasco 815 spectropolarimeter (Jasco Inc., Easton, Md.) over the wavelength range 190-260 nm, at 0.2 nm intervals and 10 nm·min^−1 scan speed. Peptides were dissolved at 50 μM concentration in a 10 mM sodium phosphate buffer at pH 7.4, using 0.1 cm path length quartz cells (Hellma, Mullheim, Germany). CD spectra were deconvoluted with CDFriend program in order to estimate the peptide secondary structure content.
NMR experiments were recorded on a 500 MHz Bruker Avance III spectrometer (Wissembourg, France) equipped with a TCI cryoprobe. NMR samples were prepared in 50 mM sodium succinate buffer, pH 5, using 2 mM peptide concentration. Sodium 2,2-dimethyl-2-silapentane-d6-5-sulfonate (Sigma Aldrich) was added at 0.1 mM concentration for chemical shift calibration and measurement of the solubilized peptide concentration. NMR experiments were processed with TOPSPIN 2.1 software (Bruker) and spectra were analyzed with Sparky program. ^1H, ^13C and ^15N resonances were assigned using 2D ^1H-^1H TOCSY (DIPSI2 isotropic scheme of 70 ms duration), 2D ^1H-^1H ROESY (300 ms mixing time), 2D ^1H-^13C HSQC, 2D ^1H-^15N HSQC, and 2D ^1H-^13C HMBC spectra. The complete ^1H, ^13C and ^15N NMR assignments of peptides 4N1K, PKT2, PKHB1 and 4NGG are provided in Tables S1-S4 (supporting information). […] The chemical shift deviations of Ha protons and Cα carbons were calculated as the differences between observed chemical shifts and random coil values reported in water. The conformational analysis of thrombospondin-1 was carried out on the crystal structure of a C-terminal fragment of human thrombospondin-1 using Pymol (Schrödinger) and Procheck programs. Predictions of NMR chemical shifts on the X-ray structure were carried out using SHIFTX2 program.

The mark [5] stands for this setting: Table 2, average of at least three independent experiments, read-out: Kd (μM) (OR).
Where [6] appears, read: Table 3, average of two or more measurements, read-out: Kd.
The mark [7] stands for this setting: Table 2, average of at least three independent experiments.
The mark [8] stands for this setting: Table 3, average of two or more measurements.

Entries after “also recorded” stand apart in the source; their conditions may differ. Read-outs that look alike come from different tables or passages of the source. Non-standard residues stand in square brackets, D forms with d. Residues, ends and D or L forms follow the SMILES beside them. *: point of attachment. NMeR = CN[C@@H](CCCNC(=N)N)C(=O)O; X1 = N=C(N)NCCC[C@H](CN)C(=O)*; β3hK = NCCCC[C@H](N)CC(=O)O; Nle = CCCC[C@H](N)C(=O)O

T1 sequence (Q08722 19-323): as above

Turning to `CSCC[C@H](NC(=O)[C@@H](NC(=O)[C@@H](NC(=O)[C@H](Cc1ccc(O)cc1)NC(=O)[C@H](Cc1ccccc1)NC(=O)[C@H](CCCNC(=N)N)NC(=O)[C@@H](N)CCCCN)C(C)C)C(C)C)C(=O)N[C@@H](Cc1c[nH]c2ccccc12)C(=O)N[C@@H](CCCCN)C(=O)N[C@@H](CCCCN)C(=O)O` [4N1K, reference compound], in series [1], the “selective elimination of leukemic B-cells versus healthy B-lymphocytes” value is on record as “specifically eliminates leukemic B-cells” and the “induction of PCD” value is listed as “induces caspase-independent PCD”. The Kd in series [2] (setting [5]) stood at 19 ± 1.6 µM. For the same molecule, in series [2] (setting [6]), the Kd was found to be 19 ± 1.6 µM. In the series on MEC-1 cells, the “MEC-1 Cell Death (%) 2 h” value is on record as 23% and the “MEC-1 Cell Death (%) 2 h, [peptides] = 200 μM” value is reported as 23%.

For the molecule `CSCC[C@H](NC(=O)[C@@H](NC(=O)[C@@H](NC(=O)[C@H](Cc1ccc(O)cc1)NC(=O)[C@H](Cc1ccccc1)NC(=O)[C@H](CCCNC(=N)N)NC(=O)[C@H](N)CCCCN)C(C)C)C(C)C)C(=O)N[C@@H](Cc1c[nH]c2ccccc12)C(=O)N[C@@H](CCCCN)C(=O)N[C@H](CCCCN)C(=O)O` [PKHB1, reference compound], the “selective elimination of leukemic B-cells versus healthy B-lymphocytes” value in series [1] is listed as “specifically eliminates leukemic B-cells”. The Kd in series [2] (setting [5]) was determined as 43 ± 21 µM. Also, in series [2] (setting [6]), the dissociation constant Kd is 43 ± 21 µM. Moreover, in the series with MEC-1 cells, the “MEC-1 Cell Death (%) 2 h” value was found to be 63%; the “MEC-1 Cell Death (%) 2 h, [peptides] = 200 μM” value was 63%; the “Cell Death (MEC-1, 2 h)” value was 78%.

`CSCC[C@H](NC(=O)[C@@H](NC(=O)[C@@H](NC(=O)[C@H](Cc1ccc(O)cc1)NC(=O)[C@H](Cc1ccccc1)NC(=O)[C@@H](CN)CCCNC(=N)N)C(C)C)C(C)C)C(=O)N[C@@H](Cc1c[nH]c2ccccc12)C(=O)N[C@@H](CCCCN)CC(=O)O` [compound 3, (β^2hR)FYVVMW(β^3hK)] (X1-FYVVMW[β3hK]-OH): the “Kd (μM) (MST)” value in series [3] was “NPD”. Moreover, in series [2] (setting [7]), the “Kd (μM) (OR)” value was “NPD”. Further, the “MEC-1 Cell Death (%) 2 h” value in the series on MEC-1 cells is reported as “NPD”. In addition, the “solubility of peptide (in words)” value in series [4] is reported as “poorly soluble”.

`CCCC[C@H](NC(=O)[C@@H](NC(=O)[C@@H](NC(=O)[C@H](Cc1ccccc1)NC(=O)[C@H](Cc1ccccc1)NC(=O)[C@H](CCCNC(=N)N)N(C)C(=O)[C@H](N)CCCCN)C(C)C)C(C)C)C(=O)N[C@@H](Cc1c[nH]c2ccccc12)C(=O)N[C@@H](CCCCN)C(=O)N[C@H](CCCCN)C(=O)O` [PKT16-FF, H-(D)K ψ(CONMe)R F F V V X W K (D)K-OH] (H-[dK][NMeR]FFVV[Nle]WK[dK]-OH): the solubility in water result in series [4] (water) was “low solubility in water”.

For `CSCC[C@H](NC(=O)CNC(=O)CNC(=O)[C@H](Cc1ccc(O)cc1)NC(=O)[C@H](Cc1ccccc1)NC(=O)[C@H](CCCNC(=N)N)NC(=O)[C@@H](N)CCCCN)C(=O)N[C@@H](Cc1c[nH]c2ccccc12)C(=O)N[C@@H](CCCCN)C(=O)N[C@@H](CCCCN)C(=O)O` [4NGG, reference compound] (H-KRFYGGMWKK-OH), the “Kd (μM) (MST)” value in series [3] is given as “NPD”. In addition, the “induction of PCD” value in series [1] is given as “unable to induce PCD”. For the same molecule, in series [2] (setting [7]), the “Kd (μM) (OR)” value was “NPD”. For the same molecule, in the series with MEC-1 cells, the “MEC-1 Cell Death (%) 2 h” value was determined as 2%.

As for `CSCC[C@H](NC(=O)[C@@H](NC(=O)[C@@H](NC(=O)[C@H](Cc1ccc(O)cc1)NC(=O)[C@H](Cc1ccccc1)N(C)C(=O)[C@H](CCCNC(=N)N)NC(=O)[C@H](N)CCCCN)C(C)C)C(C)C)C(=O)N[C@@H](Cc1c[nH]c2ccccc12)C(=O)N[C@@H](CCCCN)C(=O)N[C@H](CCCCN)C(=O)O` [PKT10, H-(D)K R ψ(CONMe)F Y V V M W K (D)K-OH], the “Kd(μM)PR” value in series [2] (Table 4, N-methyl peptides) is “NPD”. Further, in the series on MEC-1 cells, the “Cell Death (MEC-1, 2 h)” value is 0%.

In the case of `CSCC[C@H](NC(=O)[C@@H](NC(=O)[C@H](C)NC(=O)[C@H](Cc1ccc(O)cc1)NC(=O)[C@H](Cc1ccccc1)NC(=O)[C@H](CCCNC(=N)N)NC(=O)[C@H](N)CCCCN)C(C)C)C(=O)N[C@@H](Cc1c[nH]c2ccccc12)C(=O)N[C@@H](CCCCN)C(=O)N[C@H](CCCCN)C(=O)O` [V5/A, kRFY(A)VMWKk] (H-[dK]RFYAVMWK[dK]-OH; N-terminus and C-terminus assumed), the “Kd (μM)” value in series [2] (setting [8]) is reported as “NPD”. Also, in the series on MEC-1 cells, the “MEC-1 Cell Death (%) 2 h, [peptides] = 200 μM” value is on record as 12%.

Take `CSCC[C@H](NC(=O)[C@@H](NC(=O)[C@@H](NC(=O)[C@H](Cc1ccc(O)cc1)NC(=O)[C@H](C)NC(=O)[C@H](CCCNC(=N)N)NC(=O)[C@H](N)CCCCN)C(C)C)C(C)C)C(=O)N[C@@H](Cc1c[nH]c2ccccc12)C(=O)N[C@@H](CCCCN)C(=O)N[C@H](CCCCN)C(=O)O` [F3/A, kR(A)YVVMWKk] (H-[dK]RAYVVMWK[dK]-OH; N-terminus and C-terminus assumed): the “Kd (μM)” value in series [2] (setting [8]) was “NPD”. In addition, the “MEC-1 Cell Death (%) 2 h, [peptides] = 200 μM” value in the series with MEC-1 cells was 6%.

Regarding `CSCC[C@H](NC(=O)[C@@H](NC(=O)[C@@H](NC(=O)[C@H](Cc1ccc(O)cc1)NC(=O)[C@H](Cc1ccccc1)NC(=O)[C@H](CCCNC(=N)N)NC(C)=O)C(C)C)C(C)C)C(=O)N[C@@H](Cc1c[nH]c2ccccc12)C(=O)N[C@@H](CCCCN)C(N)=O` [compound 1], in the series on MEC-1 cells, the “MEC-1 Cell Death (%) 2 h” value amounted to 27%. Moreover, the “solubility of peptide (in words)” value in series [4] (listed as PKT1) was “least soluble; also recorded: poorly soluble”.

For the molecule `CSCC[C@H](NC(=O)[C@@H](NC(=O)[C@@H](NC(=O)[C@H](Cc1ccc(O)cc1)NC(=O)[C@H](Cc1ccccc1)NC(=O)[C@@H](N)CCCNC(=N)N)C(C)C)C(C)C)C(=O)N[C@@H](Cc1c[nH]c2ccccc12)C(=O)N[C@@H](CCCCN)C(=O)O` [4N1, reference compound], in series [2] (setting [7]), the “Kd (μM) (OR)” value is listed as “NPD”. For the same molecule, the “MEC-1 Cell Death (%) 2 h” value with MEC-1 cells amounted to 13%. Moreover, the “solubility of peptide (in words)” value in series [4] was “least soluble; also recorded: poorly soluble”.

The values are drawn from patent US11759496B2, “Compounds and pharmaceutical use thereof in the treatment of cancer” (priority 2016, dated 2023).
